# Data published in patent US11034659B2, “Pyrimidine derivative” (Daiichi Sankyo Company, Limited, priority 2016, dated 2021).
# Counter-ions that a name gives are not always drawn.
# Tested on: CuFi-1 cells
# Test: Secretory activity for chloride ions (MQAE fluorescence) in CuFi-1 cells
# Type: cell-based
# Details: CuFi-1 cells, zinc final concentration 10 μM, hydrochloride
# Procedure: Measurement of the secretory activity for chloride ions was performed in accordance with a previous report (West and Molloy, 1996). CuFi-1 cells were plated on a 96 well plate in 3×10^4 cells/well and incubated for two nights. After removing the culture medium, 100 μL/well of N-(ethoxycarbonylmethyl)-6-methoxyquinolinium bromide (MQAE) (diluted with culture medium and the concentration adjusted to 5 mM) was added. After the addition of MQAE, the cells were incubated for one night so that the indicator was passively loaded. After the loading, the cells were washed two times with Assay buffer, and 100 μL/well of Assay buffer was added. The secretory capacity for chloride ions was measured using FlexStation 1 (fluorescence wavelength of Ex: 355 nm/Em: 460 nm). In order to measure the basic value, nothing was added for 34 seconds immediately after the start of the measurement. Then, at this point, 100 μL/well of the test compound and zinc (final concentration: 10 μM) diluted with Assay buffer, which is free of chloride ions, was added, and the measurement was continued for 86 seconds (total measurement time: 120 seconds). The secretory capacity for chloride ions was calculated by dividing the average of RFU values in 10 seconds between 110 seconds and 120 seconds after the start of the measurement with the average between 0 second and 34 seconds (the basic value). The secretory activity for chloride ions of the test compound (EC50 value) was calculated by obtaining the secretory capacity for chloride ions at each concentration of the serially diluted test compound, and determining a concentration of the test compound that provides a secretory capacity of 50% from two secretory capacities and concentrations sandwiching 50% of the maximum response of each compound.
row,EC50,Compound
1,7.1 nM,"CCNc1nc(C(=O)O)nc(C)c1Sc1ccccc1Cl [Example 22, 5-((2-Chlorophenyl)thio)-4-(ethylamino)-6-methylpyrimidine-2-carboxylic acid hydrochloride]"

# Same assay, conditions: Homo sapiens, CuFi-1, CuFi-1 cells, zinc final concentration 10 μM
row,Compound,EC50
1,CCOc1nc(C(=O)O)nc(C)c1Oc1ccc(Cl)cc1Cl [Example 35],29.3 nM
2,"Cc1nc(C(=O)O)nc(CCc2ccncc2)c1Cc1ccccc1Cl [Example 101, 5-(2-Chlorobenzyl)-4-methyl-6-(2-(pyridin-4-yl)ethyl)pyrimidine-2-carboxylic acid]",8.9 nM
3,Cc1nc(C(=O)O)nc(CCc2cccnc2)c1Cc1ccccc1Cl [Example 102],5.2 nM
4,"Cc1nc(C(=O)O)nc(N)c1Cc1ccc(Cl)cc1Cl [Example 7, 4-Amino-5-(2,4-dichlorobenzyl)-6-methylpyrimidine-2-carboxylic acid trifluoroacetate]",41.7 nM
5,"Cc1nc(C(=O)O)nc(NCC(=O)O)c1Cc1ccc(Cl)cc1Cl [Example 8, 4-((Carboxymethyl)amino)-5-(2,4-dichlorobenzyl)-6-methylpyrimidine-2-carboxylic acid hydrochloride]",50.6 nM
6,"CCCNc1nc(C(=O)O)nc(C)c1Cc1ccc(Cl)cc1Cl [Example 2, 5-(2,4-Dichlorobenzyl)-4-methyl-6-(n-propylamino)pyrimidine-2-carboxylic acid hydrochloride]",24.2 nM
7,"CCNc1nc(C(=O)O)nc(C)c1Sc1ccccc1Cl [Example 18, 5-((2-Chlorophenyl)thio)-4-(ethylamino)-6-methylpyrimidine-2-carboxylic acid]",4.6 nM
8,"CCNc1nc(C(=O)O)nc(CC)c1Cc1ccc(Cl)cc1Cl [Example 15, 5-(2,4-Dichlorobenzyl)-4-ethyl-6-(ethylamino)pyrimidine-2-carboxylic acid]",10.8 nM
9,CCSc1nc(C(=O)O)nc(C)c1Cc1ccc(C#N)cc1Cl [Example 81],5.5 nM
10,CCOc1nc(C(=O)O)nc(C)c1Cc1cccc(Cl)c1Cl [Example 50],10.2 nM
11,CCCc1nc(C(=O)O)nc(OC)c1Cc1ccc(Cl)cc1F [Example 47],8.6 nM
12,COc1ccc(Cc2c(C)nc(C(=O)O)nc2OC)c(Cl)c1 [Example 67],15.9 nM
13,"CCNc1nc(C(=O)O)nc(C2CC2)c1Cc1ccc(Cl)cc1Cl [Example 10, 4-Cyclopropyl-5-(2,4-dichlorobenzyl)-6-(ethylamino)pyrimidine-2-carboxylic acid]",7.3 nM
14,"Cc1nc(C(=O)O)nc(N[C@@H](C)C(N)=O)c1Cc1ccc(Cl)cc1Cl [Example 4, (S)-4-((1-Amino-1-oxopropan-2-yl)amino)-5-(2,4-dichlorobenzyl)-6-methylpyrimidine-2-carboxylic acid hydrochloride]",19.6 nM
15,CCCc1nc(C(=O)O)nc(OC)c1Cc1ccc(F)cc1Cl [Example 46],15.9 nM
16,CNc1nc(C(=O)O)nc(C)c1Sc1ccccc1 [Example 23],86 nM
17,"CCNc1nc(C(=O)O)nc(C(C)C)c1Cc1ccc(Cl)cc1Cl [Example 9, 5-(2,4-Dichlorobenzyl)-4-(ethylamino)-6-isopropylpyrimidine-2-carboxylic acid]",5.5 nM
18,"CCNc1nc(C(=O)O)nc(C)c1Nc1ccccc1Cl [Example 86, 5-((2-Chlorophenyl)amino)-4-(ethylamino)-6-methylpyrimidine-2-carboxylic acid hydrochloride]",13.1 nM
19,CNc1nc(C(=O)O)nc(C)c1Sc1ccc(F)cc1Cl [Example 29],6.9 nM
20,CCNc1nc(C(=O)O)nc(CC)c1Sc1ccccc1Cl [Example 20],5.9 nM
21,CCSc1nc(C(=O)O)nc(C)c1Oc1ccc(Cl)cc1Cl [Example 80],49.4 nM
22,COc1nc(C(=O)O)nc(C)c1Cc1cccc(Cl)c1Cl [Example 66],17.4 nM

row,Compound,EC50
1,CCc1nc(C(=O)O)nc(SC)c1Sc1ccc(Cl)cc1Cl [Example 77],14.6 nM
2,CCNc1nc(C(=O)O)nc(C)c1Oc1ccc(Cl)cc1Cl [Example 31],34.9 nM
3,CNc1nc(C(=O)O)nc(C)c1Sc1ccccc1C [Example 27],14 nM
4,CCc1nc(C(=O)O)nc(OC)c1Sc1ccc(Cl)cc1Cl [Example 37],30.3 nM
5,COc1nc(C(=O)O)nc(C(C)C)c1Cc1ccc(Cl)cc1Cl [Example 71],30.2 nM
6,"CCN(CC)c1nc(C(=O)O)nc(C)c1Cc1ccc(Cl)cc1Cl [Example 3, 5-(2,4-Dichlorobenzyl)-4-(diethylamino)-6-methylpyrimidine-2-carboxylic acid hydrochloride]",53 nM
7,Cc1ccc(COc2nc(C(=O)O)nc(C)c2Cc2ccccc2Cl)cn1 [Example 96],2.4 nM
8,CCOc1nc(C(=O)O)nc(C)c1Cc1ccc(F)cc1Cl [Example 49],24.8 nM
9,"CNc1nc(C(=O)O)nc(C(C)C)c1Cc1ccccc1Cl [Example 13, 5-(2-Chlorobenzyl)-4-isopropyl-6-(methylamino)pyrimidine-2-carboxylic acid]",5.6 nM
10,"CNc1nc(C(=O)O)nc(C)c1Cc1ccccc1Cl [Example 87, 5-(2-Chlorobenzyl)-4-methyl-6-(methylamino)pyrimidine-2-carboxylic acid]",8.2 nM
11,"COc1nc(C(=O)O)nc(C)c1Cc1ccc(Cl)cc1Cl [Example 32, 5-(2,4-Dichlorobenzyl)-4-methoxy-6-methylpyrimidine-2-carboxylic acid]",17.1 nM
12,CCNc1nc(C(=O)O)nc(C)c1Sc1ccccc1C(F)(F)F [Example 24],12.9 nM
13,Cc1nc(C(=O)O)nc(NC(C)C)c1Sc1ccccc1Cl [Example 30],9.5 nM
14,CCOc1nc(C(=O)O)nc(C)c1Cc1ccc(Cl)cc1Cl [Example 33],18.4 nM
15,CCNc1nc(C(=O)O)nc(C(C)C)c1Sc1ccccc1Cl [Example 19],13.1 nM
16,COc1nc(C(=O)O)nc(C)c1Cc1ccccc1C(C)C [Example 73],35.2 nM
17,"CCNc1nc(C(=O)O)nc(C(C)C)c1Cc1ccccc1Cl [Example 14, 5-(2-Chlorobenzyl)-4-(ethylamino)-6-isopropylpyrimidine-2-carboxylic acid]",5 nM
18,CCOc1nc(C(=O)O)nc(C)c1Cc1ccc(OC)cc1Cl [Example 57],20.8 nM
19,COc1nc(C(=O)O)nc(C)c1Oc1ccc(Cl)cc1Cl [Example 34],80.1 nM
20,CNc1nc(-c2nnn[nH]2)nc(C)c1Sc1ccc(Cl)cc1Cl [Example 106],2.9 nM
21,COc1nc(C(=O)O)nc(C)c1Cc1ccc(C(F)(F)F)cc1Cl [Example 68],4 nM
22,"CSc1nc(C(=O)O)nc(C)c1Cc1ccc(Cl)cc1Cl [Example 75, 5-(2,4-Dichlorobenzyl)-4-methyl-6-(methylthio)pyrimidine-2-carboxylic acid]",3.7 nM

# Further lines, results first:
row,EC50,Compound
1,7.6 nM,CCc1nc(C(=O)O)nc(OC)c1Cc1ccc(Cl)cc1F [Example 42]
2,5.5 nM,CCc1nc(C(=O)O)nc(OC)c1Cc1ccccc1Cl [Example 39]
3,13.5 nM,Cc1nc(C(=O)O)nc(OCc2cccc(F)c2)c1Cc1ccccc1Cl [Example 98]
4,59.9 nM,COc1nc(C(=O)O)nc(C(C)C)c1Cc1ccccc1Cl [Example 70]
5,5.1 nM,Cc1nc(C(=O)O)nc(OCc2ccccc2F)c1Cc1ccccc1Cl [Example 99]
6,14.7 nM,"CCCc1nc(C(=O)O)nc(OC)c1Cc1ccccc1Cl [Example 45, hydrochloride]"
7,5.7 nM,Cc1nc(C(=O)O)nc(OCc2ccc(F)cc2)c1Cc1ccccc1Cl [Example 97]
8,15.8 nM,CCCOc1nc(C(=O)O)nc(C)c1Cc1ccccc1Cl [Example 53]
9,2.2 nM,Cc1nc(C(=O)O)nc(OCc2cccnc2)c1Cc1ccccc1Cl [Example 93]
10,33.4 nM,"Cc1nc(C(=O)O)nc(OC(C)C)c1Cc1ccccc1Cl [Example 74, 5-(2-Chlorobenzyl)-4-isopropoxy-6-methylpyrimidine-2-carboxylic acid]"
11,8.1 nM,CCc1nc(C(=O)O)nc(OC)c1Cc1ccc(F)cc1Cl [Example 40]
12,11.4 nM,CCOc1nc(C(=O)O)nc(CC)c1Cc1cccc(F)c1Cl [Example 61]
13,14.9 nM,CCCOc1nc(C(=O)O)nc(CC)c1Cc1ccccc1Cl [Example 64]
14,15.8 nM,"CCOc1nc(C(=O)O)nc(C)c1Cc1ccccc1Cl [Example 52, 5-(2-Chlorobenzyl)-4-ethoxy-6-methylpyrimidine-2-carboxylic acid hydrochloride]"
15,6.4 nM,Cc1nc(C(=O)O)nc(OCc2ccccc2)c1Cc1ccccc1Cl [Example 90]
16,20.8 nM,"Cc1nc(C(=O)O)nc(C)c1Cc1ccccc1Cl [Example 103, 5-(2-Chlorobenzyl)-4,6-dimethylpyrimidine-2-carboxylic acid]"
17,13.2 nM,Cc1nc(C(=O)O)nc(O[C@H]2C[C@H](C#N)C2)c1Cc1ccccc1Cl [Example 91]
18,4.8 nM,CCc1nc(C(=O)O)nc(OCCCF)c1Cc1ccccc1Cl [Example 63]
19,11.1 nM,Cc1nc(C(=O)O)nc(OCc2ccc(F)cc2F)c1Cc1ccccc1Cl [Example 100]
20,6.7 nM,"CCNc1nc(C(=O)O)nc(CC)c1Cc1ccccc1Cl [Example 12, 5-(2-Chlorobenzyl)-4-ethyl-6-(ethylamino)pyrimidine-2-carboxylic acid]"
